Reference: ChEMBL document CHEMBL1137615, “Discovery of orally efficacious tetracyclic metabotropic glutamate receptor 1 (mGluR1) antagonists for the treatment of chronic pain” (J Med Chem, 2007)

Assays:
[1] = target: T1, Metabotropic glutamate receptor 5 (Homo sapiens, UniProt P41594); test: Displacement of radioligand from human mGluR5b expressed in HEK293 cells at 1 uM; format: cell-based
Target sequence in this assay (P41594 21-1212 limits assumed): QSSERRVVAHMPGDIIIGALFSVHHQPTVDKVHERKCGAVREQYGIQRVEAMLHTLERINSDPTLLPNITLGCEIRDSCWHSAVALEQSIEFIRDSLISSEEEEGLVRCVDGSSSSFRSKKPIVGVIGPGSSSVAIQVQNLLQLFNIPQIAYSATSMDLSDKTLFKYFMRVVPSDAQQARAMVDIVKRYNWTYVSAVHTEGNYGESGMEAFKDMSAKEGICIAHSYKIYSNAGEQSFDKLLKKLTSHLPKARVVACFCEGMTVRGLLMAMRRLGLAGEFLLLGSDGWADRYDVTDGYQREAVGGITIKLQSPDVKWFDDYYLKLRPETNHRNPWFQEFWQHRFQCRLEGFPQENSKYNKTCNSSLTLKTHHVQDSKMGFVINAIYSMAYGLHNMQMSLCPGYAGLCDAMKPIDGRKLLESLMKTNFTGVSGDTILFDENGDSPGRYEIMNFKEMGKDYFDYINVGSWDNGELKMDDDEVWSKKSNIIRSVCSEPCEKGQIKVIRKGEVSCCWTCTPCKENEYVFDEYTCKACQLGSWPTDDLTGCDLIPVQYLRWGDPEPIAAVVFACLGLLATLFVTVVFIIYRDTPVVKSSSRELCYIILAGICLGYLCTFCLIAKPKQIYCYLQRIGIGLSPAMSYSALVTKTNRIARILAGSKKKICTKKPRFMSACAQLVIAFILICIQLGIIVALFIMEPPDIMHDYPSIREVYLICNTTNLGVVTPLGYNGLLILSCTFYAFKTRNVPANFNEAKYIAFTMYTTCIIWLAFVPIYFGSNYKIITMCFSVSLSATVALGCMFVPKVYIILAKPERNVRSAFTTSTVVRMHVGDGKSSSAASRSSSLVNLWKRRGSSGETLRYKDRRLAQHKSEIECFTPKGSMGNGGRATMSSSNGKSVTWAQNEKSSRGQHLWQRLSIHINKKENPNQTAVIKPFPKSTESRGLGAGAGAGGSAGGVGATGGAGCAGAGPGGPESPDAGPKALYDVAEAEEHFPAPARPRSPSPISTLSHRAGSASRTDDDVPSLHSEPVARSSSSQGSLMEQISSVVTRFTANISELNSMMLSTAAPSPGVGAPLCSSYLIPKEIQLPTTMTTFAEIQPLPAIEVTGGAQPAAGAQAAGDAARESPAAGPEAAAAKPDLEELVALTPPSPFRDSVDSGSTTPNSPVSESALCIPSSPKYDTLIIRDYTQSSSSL

[2] = AUC (0 to 6 hrs) in rat at 10 mg/kg, po by CARRS; format: ADME, organism-based; parameters: time < 6 hr, dose 10 mg/kg, route oral; conditions: plasma
[3] = target: Metabotropic glutamate receptor 1 (Rattus norvegicus, UniProt P23385); test: Displacement of [3H]9-Dimethylamino-3-(4-methoxy-phenyl)-3H-pyrido[3',2':4,5]thieno[3,2-d]pyrimidin-4-one from mGluR1 in rat cerebellum membrane; format: cell membranes
Sequence of Metabotropic glutamate receptor 1 (Rattus norvegicus, UniProt P23385) (P23385 whole entry): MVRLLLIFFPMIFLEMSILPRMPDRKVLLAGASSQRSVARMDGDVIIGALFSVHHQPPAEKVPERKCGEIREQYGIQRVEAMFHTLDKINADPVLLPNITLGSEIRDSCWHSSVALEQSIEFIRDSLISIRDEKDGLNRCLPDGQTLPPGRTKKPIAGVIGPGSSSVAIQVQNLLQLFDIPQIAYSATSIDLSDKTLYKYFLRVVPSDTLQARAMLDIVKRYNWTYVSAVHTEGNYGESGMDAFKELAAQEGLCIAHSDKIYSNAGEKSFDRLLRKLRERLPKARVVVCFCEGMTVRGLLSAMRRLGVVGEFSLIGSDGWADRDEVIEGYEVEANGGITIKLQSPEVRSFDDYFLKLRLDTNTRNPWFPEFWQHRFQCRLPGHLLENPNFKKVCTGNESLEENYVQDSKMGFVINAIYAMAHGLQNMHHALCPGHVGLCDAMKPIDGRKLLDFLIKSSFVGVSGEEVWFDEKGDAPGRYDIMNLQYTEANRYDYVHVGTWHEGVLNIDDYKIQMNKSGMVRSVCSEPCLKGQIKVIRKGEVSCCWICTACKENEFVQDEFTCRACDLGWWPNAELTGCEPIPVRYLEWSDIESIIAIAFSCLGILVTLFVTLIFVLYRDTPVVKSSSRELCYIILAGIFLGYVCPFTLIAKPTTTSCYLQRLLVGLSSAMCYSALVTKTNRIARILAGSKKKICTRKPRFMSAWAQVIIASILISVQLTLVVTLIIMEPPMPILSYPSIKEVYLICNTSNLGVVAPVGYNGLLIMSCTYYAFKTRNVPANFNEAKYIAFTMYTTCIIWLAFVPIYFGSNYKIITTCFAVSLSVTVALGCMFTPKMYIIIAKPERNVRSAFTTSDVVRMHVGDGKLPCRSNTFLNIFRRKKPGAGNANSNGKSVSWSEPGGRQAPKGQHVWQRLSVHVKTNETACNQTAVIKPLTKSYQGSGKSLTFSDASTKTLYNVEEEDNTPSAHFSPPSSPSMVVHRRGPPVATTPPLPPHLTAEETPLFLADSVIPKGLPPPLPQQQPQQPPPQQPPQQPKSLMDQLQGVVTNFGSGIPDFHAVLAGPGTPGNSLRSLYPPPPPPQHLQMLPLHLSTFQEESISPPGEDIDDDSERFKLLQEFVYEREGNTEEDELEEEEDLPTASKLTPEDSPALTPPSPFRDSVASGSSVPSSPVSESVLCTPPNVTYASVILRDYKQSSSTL

[4] = Tmax in rat at 10 mg/kg, po by CARRS; format: ADME, organism-based; parameters: dose 10 mg/kg, route oral; conditions: in vivo
[5] = Cmax in rat at 10 mg/kg, po by CARRS; format: ADME, organism-based; parameters: dose 10 mg/kg, route oral; conditions: in vivo
[6] = target: T1, Metabotropic glutamate receptor 5; test: Antagonist activity at human mGluR5b expressed in HEK293 cells assessed by measuring intracellular calcium by FLIPR assay; format: functional, cell-based
Target sequence in this assay (P41594 whole entry): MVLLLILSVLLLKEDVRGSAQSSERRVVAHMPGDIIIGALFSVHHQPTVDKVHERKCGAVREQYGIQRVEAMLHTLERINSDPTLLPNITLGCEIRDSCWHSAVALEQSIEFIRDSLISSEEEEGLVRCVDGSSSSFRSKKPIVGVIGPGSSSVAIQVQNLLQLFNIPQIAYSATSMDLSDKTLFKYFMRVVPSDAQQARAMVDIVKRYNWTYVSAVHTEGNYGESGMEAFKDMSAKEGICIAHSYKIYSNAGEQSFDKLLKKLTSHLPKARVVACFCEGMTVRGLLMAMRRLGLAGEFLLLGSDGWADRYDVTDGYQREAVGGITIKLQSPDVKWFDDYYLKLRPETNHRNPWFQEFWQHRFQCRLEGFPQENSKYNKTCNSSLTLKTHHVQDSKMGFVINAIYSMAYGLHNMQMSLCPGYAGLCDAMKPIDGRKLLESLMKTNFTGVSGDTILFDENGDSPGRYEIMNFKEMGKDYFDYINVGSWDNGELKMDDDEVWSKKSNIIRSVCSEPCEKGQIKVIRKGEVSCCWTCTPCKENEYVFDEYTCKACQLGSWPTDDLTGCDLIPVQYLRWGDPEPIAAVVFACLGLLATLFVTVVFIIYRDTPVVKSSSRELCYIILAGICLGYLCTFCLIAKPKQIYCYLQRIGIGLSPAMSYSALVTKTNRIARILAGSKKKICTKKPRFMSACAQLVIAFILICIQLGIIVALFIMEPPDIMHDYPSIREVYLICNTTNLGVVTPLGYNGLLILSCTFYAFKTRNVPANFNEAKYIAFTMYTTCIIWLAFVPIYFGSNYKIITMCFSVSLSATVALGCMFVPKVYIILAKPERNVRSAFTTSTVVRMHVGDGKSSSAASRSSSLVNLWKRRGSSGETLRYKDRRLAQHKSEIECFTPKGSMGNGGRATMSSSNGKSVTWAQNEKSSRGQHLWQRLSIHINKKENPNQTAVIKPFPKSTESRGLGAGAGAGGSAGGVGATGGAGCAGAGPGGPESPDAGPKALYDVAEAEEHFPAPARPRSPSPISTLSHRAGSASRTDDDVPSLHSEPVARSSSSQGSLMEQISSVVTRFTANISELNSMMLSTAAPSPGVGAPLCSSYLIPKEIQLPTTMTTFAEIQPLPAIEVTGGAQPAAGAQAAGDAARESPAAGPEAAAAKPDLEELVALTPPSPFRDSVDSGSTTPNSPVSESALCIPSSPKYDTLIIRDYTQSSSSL

[7] = target: Metabotropic glutamate receptor 1 (Homo sapiens, UniProt Q13255); test: Antagonist activity at human mGluR1a expressed in CHO cells assessed by measuring intracellular calcium by FLIPR assay; format: functional, cell-based
Sequence of Metabotropic glutamate receptor 1 (Homo sapiens, UniProt Q13255) (Q13255 whole entry): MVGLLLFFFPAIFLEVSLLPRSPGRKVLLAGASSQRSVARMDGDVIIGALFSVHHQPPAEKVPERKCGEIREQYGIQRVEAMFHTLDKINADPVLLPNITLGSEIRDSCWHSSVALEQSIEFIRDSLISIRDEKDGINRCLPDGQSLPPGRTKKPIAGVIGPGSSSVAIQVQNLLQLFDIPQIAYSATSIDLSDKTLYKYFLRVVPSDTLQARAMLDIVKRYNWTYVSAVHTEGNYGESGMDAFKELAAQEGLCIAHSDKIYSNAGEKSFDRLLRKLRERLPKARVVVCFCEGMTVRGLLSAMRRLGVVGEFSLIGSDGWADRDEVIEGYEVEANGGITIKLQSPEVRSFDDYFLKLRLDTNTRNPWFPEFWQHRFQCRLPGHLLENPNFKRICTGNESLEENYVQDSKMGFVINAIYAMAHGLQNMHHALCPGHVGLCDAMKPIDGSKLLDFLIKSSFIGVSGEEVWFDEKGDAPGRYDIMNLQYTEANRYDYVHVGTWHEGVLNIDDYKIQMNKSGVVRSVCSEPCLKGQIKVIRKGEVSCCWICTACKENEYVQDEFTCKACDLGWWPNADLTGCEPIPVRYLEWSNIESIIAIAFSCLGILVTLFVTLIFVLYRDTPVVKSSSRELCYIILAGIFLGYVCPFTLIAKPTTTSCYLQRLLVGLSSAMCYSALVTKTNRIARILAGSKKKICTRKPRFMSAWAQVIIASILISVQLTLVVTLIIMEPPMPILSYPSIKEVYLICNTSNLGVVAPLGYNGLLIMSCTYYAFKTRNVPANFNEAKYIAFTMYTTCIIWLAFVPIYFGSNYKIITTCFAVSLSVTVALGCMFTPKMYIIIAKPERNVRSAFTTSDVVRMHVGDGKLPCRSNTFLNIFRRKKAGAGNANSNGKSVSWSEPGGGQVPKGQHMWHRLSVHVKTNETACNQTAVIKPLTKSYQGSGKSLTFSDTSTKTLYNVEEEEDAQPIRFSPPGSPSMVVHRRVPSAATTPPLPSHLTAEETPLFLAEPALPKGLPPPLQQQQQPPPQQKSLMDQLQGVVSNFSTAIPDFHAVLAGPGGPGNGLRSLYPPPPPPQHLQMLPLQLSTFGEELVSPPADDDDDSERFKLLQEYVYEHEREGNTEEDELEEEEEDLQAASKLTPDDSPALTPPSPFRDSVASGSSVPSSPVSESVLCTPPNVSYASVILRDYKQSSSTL

[8] = tested on: Rattus norvegicus; test: Effect on neuropathic pain in SNL rat model assessed as paw withdrawal threshold at 10 mg/kg, po; format: functional
[9] = tested on: Rattus norvegicus; test: Inhibition of neuropathic pain in SNL rat model at 10 mg/kg, po; format: functional
[10] = tested on: Rattus norvegicus; test: Effect on neuropathic pain in orally dosed SNL rat model; format: functional; conditions: po

SMILES	Activity [1]	AUC(0-t) at 6 h [2]	Ki [3]	Tmax [4]	Cmax [5]	IC50 [6]	IC50 [7]	Activity [8]	MPE [9]	ED50 [10]
O=c1c2sc3ncc4cc[nH]c4c3c2ncn1-c1ccc(Cl)cc1	1.7%	0.018 µM·h	2.4 nM	0.5 h	37 nM					
Cc1ccc(-n2cnc3c(sc4ncc5cc[nH]c5c43)c2=O)cc1		0.035 µM·h	16.9 nM	0.5 h	71 nM	> 1000 nM				
Cc1ccc(-n2cnc3c(sc4ncc5c(c43)NC[C@@H](C)O5)c2=O)cc1			0.6 nM			609 nM				
Cc1ccc(-n2cnc3c(sc4ncc5cn[nH]c5c43)c2=O)cc1	5%		17.8 nM				16.8 nM			
C[C@H]1CNc2c(cnc3sc4c(=O)n(-c5ccc(Cl)cc5)cnc4c23)O1		8.43 µM·h	1.5 nM	2 h	2050 nM	> 1000 nM		7.7 g	44%	
O=c1c2sc3ncc4cn[nH]c4c3c2ncn1-c1ccc(Cl)cc1	-12%		19.6 nM							
COc1ccc(-n2cnc3c(sc4nccc(N(C)C)c43)c2=O)cc1		1.93 µM·h	7.9 nM	0.5 h	564 nM	10000 nM	9.5 nM	13.2 g	87%	
CNc1c(Br)cnc2sc3c(=O)n(-c4ccc(Cl)cc4)cnc3c12							5.9 nM			
C[C@H]1COc2cnc3sc4c(=O)n(-c5ccc(Cl)cc5)cnc4c3c2N1			0.5 nM			> 1000 nM				
C[C@@H]1COc2cnc3sc4c(=O)n(-c5ccc(Cl)cc5)cnc4c3c2N1			9.1 nM			> 1000 nM	24.4 nM			
COc1ccc(-n2cnc3c(sc4ncc5c(c43)NCCO5)c2=O)cc1		1.56 µM·h	1 nM	2 h	467 nM	> 1000 nM		8.5 g	50%	8 mg/kg

Second part, led by results:

Activity [1]	AUC(0-t) at 6 h [2]	Ki [3]	Tmax [4]	Cmax [5]	IC50 [6]	IC50 [7]	SMILES	Activity [8]	MPE [9]	ED50 [10]
-1.7%		10.8 nM					O=c1c2sc3ncc4nc[nH]c4c3c2ncn1-c1ccc(Cl)cc1			
-2%		788 nM				636 nM	CSc1nc2c(cnc3sc4c(=O)n(-c5ccc(C)cc5)cnc4c32)s1			
		0.3 nM			> 1000 nM	2.4 nM	COc1ccc(-n2cnc3c(sc4ncc5c(c43)NC[C@@H](C)O5)c2=O)cc1			
	0.077 µM·h	0.5 nM	1 h	70 nM	702 nM		Cc1ccc(-n2cnc3c(sc4ncc5c(c43)NCCO5)c2=O)cc1			
	5.19 µM·h	0.2 nM	0.5 h	1420 nM	> 1000 nM		C[C@@H]1CNc2c(cnc3sc4c(=O)n(-c5ccc(Cl)cc5)cnc4c23)O1	10.9 g	68%	
	1.32 µM·h	28.6 nM	2 h	394 nM	> 10000 nM		COc1ccc(-n2cnc3c(sc4ncc5cc[nH]c5c43)c2=O)cc1	6.6 g	39%	
-10%		1000 nM				541 nM	Cc1ccc(-n2cnc3c(sc4ncc5sc(=S)[nH]c5c43)c2=O)cc1			
0.15%		104 nM					Cn1cnc2cnc3sc4c(=O)n(-c5ccc(Cl)cc5)cnc4c3c21			
-8%		1000 nM				446 nM	Cc1ccc(-n2cnc3c(sc4ncc5sc(=O)[nH]c5c43)c2=O)cc1			
	0.366 µM·h	0.4 nM	1 h	198 nM	> 1000 nM		O=c1c2sc3ncc4c(c3c2ncn1-c1ccc(Cl)cc1)NCCO4	11.8 g	73%	5.1 mg/kg
